Measurements: patent US10301272B2, “Carboxamide or sulfonamide substituted thiazoles and related derivatives as modulators for the orphan nuclear receptor ROR[γ]” (Phenex Pharmaceuticals AG, priority 2012, dated 2019)
Like-named read-outs stand apart in the source and are kept apart here.

Biological target: RORγ (Homo sapiens, UniProt P51449)
Experiment: RORγ Gal4 Reporter Gene Assay
Format: cell-based
Protocol: Determination of a ligand mediated Gal4 promoter driven transactivation to quantify ligand binding to RORγ was performed as follows: DNA encoding three different RORγ protein fragments was cloned into vector pCMV-BD (Stratagene). Expression was under control of a CMV promoter and as fusion to the DNA-binding domain of the yeast protein GAL4. Other vectors used were pFR-Luc (Stratagene) as regulated reporter plasmid. pFR-Luc contains a synthetic promoter with five tandem repeats of the yeast GAL4 binding sites that control expression of the Photinus pyralis (American firefly) luciferase gene. In order to improve experimental accuracy the plasmid pRL-CMV was cotransfected. pRL-CMV contains the constitutive CMV promoter, controlling the expression of the Renilla reniformis luciferase.
The medium is supplemented with 10% fetal bovine serum, 0.1 mM nonessential amino acids, 1 mM sodium pyruvate, 1% Glutamax and 100 units Penicilin/[…] per mL at 37° C. in 5% CO2.
For the assay, […] were plated per well in 96 well plates in 100 μL per well, incubated over night at 37° C. in 5% CO2. […] About 4 h after addition of the transfection solution, fresh Minimal Essential Medium (MEM, same composition as used for plating cells, but without serum) was added. Then compound stocks, prediluted in MEM (same composition as used for plating cells) were added (final vehicle concentration not exceeding 0.1%).
All experiments were done at least in triplicates.

[1] = firefly (FF) luciferase, 293T cells, read-out: pIC50 (FF) (converted)
[2] = renilla normalised (RENnorm) luciferase, 293T cells, read-out: pIC50 (REN) (converted)

Chain of RORγ (P51449 whole entry, looked up, the tested form may be a part): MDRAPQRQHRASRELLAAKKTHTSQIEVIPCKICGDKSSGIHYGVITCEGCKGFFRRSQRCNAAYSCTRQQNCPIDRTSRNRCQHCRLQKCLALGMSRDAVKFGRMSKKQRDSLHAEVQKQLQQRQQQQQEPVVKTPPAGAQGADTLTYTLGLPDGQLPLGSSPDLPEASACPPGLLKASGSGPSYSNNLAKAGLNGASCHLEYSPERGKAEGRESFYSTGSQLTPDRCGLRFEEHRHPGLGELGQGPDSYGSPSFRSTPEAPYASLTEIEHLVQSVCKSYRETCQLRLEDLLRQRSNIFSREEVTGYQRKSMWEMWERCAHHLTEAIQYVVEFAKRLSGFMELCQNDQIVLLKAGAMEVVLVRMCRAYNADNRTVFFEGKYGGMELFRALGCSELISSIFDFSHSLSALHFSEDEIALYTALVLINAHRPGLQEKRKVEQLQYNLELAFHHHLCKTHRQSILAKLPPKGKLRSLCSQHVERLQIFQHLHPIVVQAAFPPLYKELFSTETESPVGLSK

Structure (SMILES) | pIC50 (FF) | pIC50 (REN) | other results
CC(C)(C)NS(=O)(=O)c1ccc(-c2oc(C(=O)N3CC4(C3)CS(=O)(=O)C4)nc2CC2CCCCC2)c2ccccc12 [100/24] | nt/7.5/7.7 | nt/7.5/7.7 | –
CC(C)(C)NS(=O)(=O)c1ccc(-c2nc(C(=O)NC3CCS(=O)(=O)CC3)sc2CC2CCCCC2)c2ccccc12 [25/2] | nt/9.0/9.0 | nt/9.0/9.0 | –
CCC(C)(C)NS(=O)(=O)c1ccc(-c2sc(C(=O)NC3CCOCC3)nc2C(=O)N2CCC(C)CC2)c2ccccc12 [304/15] | nt/7.6/7.7 | nt/7.6/7.7 | –
CN(C(=O)c1nc(CC2CCCCC2)c(-c2cc(C(C)(C)C)cc(C3(C)CC3)c2)s1)C1CCOCC1 [6/52] | nt/6.9/6.9 | nt/6.9/6.9 | –
CC(C)(C)c1cc(-c2nc(C(=O)NC3CCS(=O)(=O)CC3)oc2CC2CCCCC2)cc(C2(C)CC2)c1 [103/3] | nt/6.6/6.6 | nt/6.6/6.6 | –
CC1CCN(C(=O)c2nc(C(=O)NCC(C)(C)O)sc2-c2ccc(S(=O)(=O)N(CC(F)(F)F)C(C)(C)C)c3ccccc23)CC1 [304/23] | nt/7.5/7.7 | nt/7.5/7.7 | –
CC(C)(C)c1cc(-c2nc(C(=O)N[C@H]3C[C@H](C(=O)O)C3)oc2CC2CCCCC2)cc(C2(C)CC2)c1 [103/2] | – | – | IC50 [1]: 398 nM; IC50 [2]: 251 nM
CC(C)(C)NS(=O)(=O)c1ccc(-c2sc(C(=O)N[C@H]3C[C@H](C(=O)O)C3)nc2C2CCCCC2)c2ccccc12 [300/17] | nt/8.0/8.0 | nt/8.0/8.0 | –
CC(C)(C)NS(=O)(=O)c1ccc(-c2sc(C(=O)NC3CCS(=O)(=O)CC3)cc2CC2CCCCC2)c2ccccc12 [Example 307/1] | nt/8.4/8.5 | nt/8.4/8.5 | –
CC(C)(C)NS(=O)(=O)c1ccc(-c2oc(C(=O)NC3CCS(=O)(=O)CC3)nc2CC2CCCCC2)c2ccncc12 [100/28] | nt/7.1/7.2 | nt/7.1/7.2 | –
CC1CCN(C(=O)c2nc(C(=O)NCC(C)(C)O)sc2-c2ccc(S(=O)(=O)NC3(C)CC3)c3ccccc23)CC1 [304/27] | nt/7.6/7.5 | nt/7.6/7.5 | –
CC(C)(O)CNC(=O)c1nc(CC2CCC(F)(F)CC2)c(-c2ccc(S(=O)(=O)NC(C)(C)C)c3ccccc23)s1 [21/11] | nt/8.0/8.2 | nt/8.0/8.2 | –
CC(C)(C)NS(=O)(=O)c1ccc(-c2sc(C(=O)NC3CCS(=O)(=O)CC3)nc2C2CCC2)c2ccccc12 [300/10] | nt/7.2/7.3 | nt/7.2/7.3 | –
CCCc1nc(C(=O)NCC(C)(C)O)sc1-c1ccc(S(=O)(=O)N[C@@H](C)C(F)(F)F)c2ccccc12 [300/9] | nt/7.9/7.9 | nt/7.9/7.9 | –
CC1CCCN(C(=O)c2nc(C(=O)NCC(C)(C)O)sc2-c2ccc(S(=O)(=O)NC(C)(C)C)c3ccccc23)C1C (centres unmarked) [304/9] | nt/7.3/7.4 | nt/7.3/7.4 | –
CC(C)(C)NS(=O)(=O)c1ccc(-c2sc(C(=O)NC3CCS(=O)(=O)CC3)nc2CC2CCC2)c(Cl)c1Cl [21/14] | nt/8.3/8.4 | nt/8.3/8.4 | –
CC(C)(C)NS(=O)(=O)c1ccc(-c2sc(C(=O)N3CCC(C(C)(C)C(=O)O)C3)nc2CC2CCCCC2)c2ccccc12 (centres unmarked) [6/50] | nt/7.6/7.7 | nt/7.6/7.7 | –
CC(C)(C)NS(=O)(=O)c1ccc(-c2sc(C(=O)NCC(C)(C)c3noc(=O)[nH]3)nc2CC2CCCCC2)c2ccccc12 [6/60] | nt/8.5/8.7 | nt/8.5/8.7 | –
CC(C)(C)NS(=O)(=O)c1ccc(-c2sc(C(=O)N3CCC(S(C)(=O)=O)CC3)nc2CC2CCCCC2)c2ccccc12 [6/56] | nt/8.1/8.2 | nt/8.1/8.2 | –
CCC1CCN(C(=O)c2nc(C(=O)NCC(C)(C)O)sc2-c2ccc(S(=O)(=O)NC(C)(C)C)c3ccccc23)CC1 [304/10] | nt/7.5/7.5 | nt/7.5/7.5 | –
CC(C)(O)CNC(=O)c1nc(C(F)F)c(-c2ccc(S(=O)(=O)NC(C)(C)C)c3ccccc23)s1 [Example 305, 5-(4-(N-(tert-butyl)sulfamoyl)naphthalen-1-yl)-4-(difluoromethyl)-N-(2-hydroxy-2-methylpropyl)thiazole-2-carboxamide] | nt/6.6/7.2 | nt/6.6/7.2 | –
CC(C)(O)CNC(=O)c1nc(CC2CCC2)c(-c2ccc(S(=O)(=O)NC(C)(C)C)cc2OC(F)(F)F)s1 [21/24] | nt/7.5/7.6 | nt/7.5/7.6 | –
C[C@H](NS(=O)(=O)c1ccc(-c2sc(C(=O)NC3CCS(=O)(=O)CC3)nc2CC2CCCC2)c(Cl)c1Cl)C(F)(F)F [8/12] | – | – | IC50 [1]: 1.26 nM; IC50 [2]: 1.26 nM

Structure (SMILES) | pIC50 (FF) | pIC50 (REN) | other results
CC(C)(C)NS(=O)(=O)c1ccc(-c2oc(C(=O)NCCC(C)(C)C(=O)O)nc2CC2CCCCC2)c2ccccc12 [100/21] | nt/7.2/7.1 | nt/7.2/7.1 | –
CC(C)(C)NS(=O)(=O)c1ccc(-c2sc(C(=O)N[C@H]3C[C@H](C(=O)O)C3)nc2CC2CCC2)c(Cl)c1Cl [21/15] | – | – | IC50 [1]: 20 nM; IC50 [2]: 20 nM
CC(C)(C)NS(=O)(=O)c1ccc(-c2sc(C(=O)NC3CCS(=O)(=O)CC3)nc2-c2cccc(C(N)=O)c2)c2ccccc12 [300/16] | nt/6.0/6.1 | nt/6.0/6.1 | –
C[C@H](NS(=O)(=O)c1ccc(-c2sc(C(=O)NCC(C)(C)O)nc2CC2CCC2)c(OC(F)(F)F)c1)C(F)(F)F [21/18] | nt/8.0/8.1 | nt/8.0/8.1 | –
Cc1c(-c2sc(C(=O)NC3CCS(=O)(=O)CC3)nc2CC2CCCCC2)cc(Cl)c(S(=O)(=O)NC(C)(C)C)c1Cl [6/63] | nt/9.2/8.9 | nt/9.2/8.9 | –
Cc1c(-c2sc(C(=O)NC3CCS(=O)(=O)CC3)nc2CC2CCCCC2)cc(Cl)c(S(N)(=O)=O)c1Cl [17/2] | nt/5.7/5.9 | nt/5.7/5.9 | –
CC1CCN(C(=O)c2nc(C(=O)N3CC4(CCS(=O)(=O)CC4)C3)sc2-c2ccc(S(=O)(=O)NC(C)(C)C)c3ccccc23)CC1 [304/16] | nt/6.6/6.6 | nt/6.6/6.6 | –
CCC(C)(C)NS(=O)(=O)c1ccc(-c2sc(C(=O)NCC(C)(C)O)nc2C(=O)N2CCC(C)CC2)c(Cl)c1C [Example 301/1] | nt/8.5/8.5 | nt/8.5/8.5 | –
CC(C)(C)NS(=O)(=O)c1ccc(-c2sc(C(=O)N3CC(S(C)(=O)=O)C3)nc2CC2CCCCC2)c2ccccc12 [6/57] | nt/7.9/8.2 | nt/7.9/8.2 | –
CC(C)(C)NS(=O)(=O)c1ccc(-c2sc(C(=O)N[C@H]3C[C@H](C(=O)O)C3)nc2CC2CCC2)c2ccccc12 [21/17] | – | – | IC50 [1]: 7.94 nM; IC50 [2]: 6.31 nM
CC1CCN(C(=O)c2nc(C(=O)NCC(C)(C)O)sc2-c2ccc(S(=O)(=O)NCC(C)(C)O)c3ccccc23)CC1 [304/22] | nt/5.8/5.8 | nt/5.8/5.8 | –
C[C@H](NS(=O)(=O)c1ccc(-c2sc(C(=O)NCC(C)(C)O)nc2CC2CCC2)c(OC(F)F)c1)C(F)(F)F [21/21] | nt/7.7/7.8 | nt/7.7/7.8 | –
CCCc1nc(C(=O)N[C@H]2C[C@H](C(=O)O)C2)sc1-c1ccc(S(=O)(=O)NC(C)(C)C)c2ccccc12 [300/8] | – | – | IC50 [1]: 79.4 nM; IC50 [2]: 63.1 nM
CC1CCN(C(=O)c2nc(C(=O)NCC(C)(C)O)sc2-c2ccc(S(=O)(=O)NC3CCOC3)c3ccccc23)CC1 (centres unmarked) [304/24] | nt/6.6/6.7 | nt/6.6/6.7 | –
CC1CCN(C(=O)c2nc(C(=O)NCC(C)(C)O)sc2-c2ccc(S(=O)(=O)NCC(C)(C)C)c3ccccc23)CC1 [304/19] | nt/7.4/7.5 | nt/7.4/7.5 | –
CC(C)(C)NS(=O)(=O)c1ccc(-c2sc(C(=O)N[C@H]3C[C@H](C(=O)O)C3)nc2CC2CCCCC2)c(OC(F)(F)F)c1 [21/7] | – | – | IC50 [1]: 10 nM; IC50 [2]: 6.31 nM
CCC(C)(C)NS(=O)(=O)c1ccc(-c2sc(C(=O)NCC(C)(C)O)nc2C(=O)N2CCC(C)CC2)c2ccccc12 [304/13] | nt/7.6/7.7 | nt/7.6/7.7 | –
CC(C)(C)NS(=O)(=O)c1ccc(-c2sc(C(=O)N[C@H]3C[C@H](C(=O)O)C3)nc2CC2CCCCC2)c2ccccc12 [7/9] | – | – | pIC50 (FF) (firefly (FF) luciferase, 293T cells): 8.7; pIC50 (REN) (renilla normalised (RENnorm) luciferase, 293T cells): 9.0
CC1CCN(C(=O)c2nc(C(=O)NCC(C)(C)O)sc2-c2ccc(S(=O)(=O)N3CCCCC3(C)C)c3ccccc23)CC1 [304/25] | nt/8.0/7.6 | nt/8.0/7.6 | –
CC(C)(C)NS(=O)(=O)c1cc(Cl)c(-c2sc(C(=O)N[C@H]3C[C@H](C(=O)O)C3)nc2CC2CCCCC2)cc1Cl [19/11] | nt/7.6/7.7 | nt/7.6/7.7 | –
CC(C)(C)NS(=O)(=O)c1ccc(-c2nc(C(=O)N[C@H]3C[C@H](C(=O)O)C3)sc2CC2CCCCC2)c2ccccc12 [Example 25/1] | nt/8.9/8.8 | nt/8.9/8.8 | –
CC1CCN(C(=O)c2nc(C(=O)NCC(C)(C)O)sc2-c2ccc(S(=O)(=O)NCC(F)(F)F)c3ccccc23)CC1 [304/21] | nt/7.4/7.4 | nt/7.4/7.4 | –
CC(C)(C)NS(=O)(=O)c1ccc(-c2sc(C(=O)NC3CCS(=O)(=O)CC3)nc2Cc2cccnc2)c2ccccc12 [300/13] | nt/6.4/6.6 | nt/6.4/6.6 | –
